Like-named read-outs stand apart in the source and are kept apart here.
Legend:
[1] = system: NFκB; assay: NFκB inhibition assay (2 h), NFκB-dependent nanoluc luciferase reporter; type: cell-based, human; settings: read-out: NFκB Inhibition 2 h IC50; NFκB-MDA-MB-231-nanoluc cells, 2-h treatment, mean ± SD
Description: Experiments were performed according to the published protocol. On day 1, 4 × 10^4 NFκB-MDA-MB-231-nanoluc cells were seeded into white 96 well plates (Greiner; #655098). On day 2, the medium was replaced with starvation medium and the cells were pre-incubated for 20 min with either 100 µL of DMSO (Roth; #A994.1) alone at a concentration of maximal 0.1% or with the final concentration of the diluted compounds (Table 3). To activate NFκB signaling, cells were stimulated with 1 µg/mL LPS (Sigma-Aldrich; #L2630) beforehand. NFκB-dependent luciferase activity was measured according to the manufacturer`s protocol for the Nano-Glo Luciferase Assay System (Promega, Mannheim, Germany; #N1110). NFκB-dependent luminescence was determined as relative light units (RLU) using the microplate reader Spark® (Tecan, Männedorf, Switzerland).

[2] = system: CAFs; assay: 2D cell viability in CAFs; type: cell-based, murine; settings: Mus musculus, 24 h, read-out: Reduction of Cell Viability 24 h IC50 in CAFs
Description: Table S1 IC50-values for reduction of cell viability determined in CAFs.
Compound Cell Viability 1
1 Cell viability of CAFs was determined 24 h post-treatment with the 2D cell viability assay. CAFs were seeded at a cell density of 2.5 × 10^3 cells per well. Compound concentration was applied in triplicates in a four-fold serial dilution starting at 1000 nM. 2 Duration of treatment. 3 Mean ± SD […]
50 µM. 4 Mean ± SD (n = 3). 5 Mean ± SD (n = 2).

[3] = system: MDA-MB-231; assay: Cell cycle studies (PI-DNA flow cytometry) in MDA-MB-231; type: cell-based, human; settings: MDA-MB-231, 20 nM, 72 h
Description: To investigate cell cycle progression in the presence of compound (1s) or paclitaxel (Santa Cruz Biotechnology; #sc-201439), we quantified the DNA content in the cell. On day 1, the cells were seeded in 1 mL into a 24 well plate (Greiner; #662160). On day 2, MDA-MB-468-UnaG were pre-treated either without (normoxia) or with 100 µM CoCl2 (hypoxia) (Sigma-Aldrich; #C8661) for 24 h before compounds were applied. On day 2 for MDA-MB-231 or on day 3 for MDA-MB-468-UnaG, paclitaxel was applied at the concentrations 15 nM, 37 nM, and 100 nM, and compound (1s) was applied at concentrations ranging from 2 nM to 1000 nM. […] The fluorescence signal resulting from PI-DNA complex formation was recorded using the flow cytometer CytoFlex (Beckmann Coulter, Krefeld, Germany). The cell cycle phase population was determined based on the DNA content in a set of chromosomes (n) in a cell using the integrated software CytExpert (Beckmann Coulter): sub-G0/G1 (<2n), G0/G1 (2n), S (>2n, <4n), G2/M (4n) or hyperploid cells (>4n) (see Figure S10).
FSC-A and FSC-height (H). (c) To evaluate cell cycles phases, the range of analyzed cells was deter-mined within the (b) single cells by excluding recorded events that extend the proportional distri-bution of the DNA chromosome set (n): < 2n; > 4n. […]

[4] = system: 3D co-culture spheroids of MDA-MB-231 and primary murine CAFs; assay: 3D cell viability (ATP content) in TNBC co-culture spheroids; type: cell-based, human MDA-MB-231
Description: On day 1, 3000 cells were seeded into a low-attachment 96 well plate (Greiner; #650970). […] Cell viability was determined based on the ATP content in viable cells according to the manufacturer`s instructions (Promega #G9682). Co-culture spheroids were generated for 72 h before they were grown for another 72 h with or without exposure to the compounds. […] Cell viability-dependent luminescence was determined as relative light units (RLU) using the microplate reader Spark® (Tecan).

[5] = system: MDA-MB-231; assay: 2D cell viability (PrestoBlue resazurin) in MDA-MB-231; type: cell-based, human; settings: read-out: Reduction of Cell Viability 24 h IC50; MDA-MB-231 2D monolayer, 24 h post-treatment, mean ± SD
Description: Cell viability was determined based on resazurin-reduction in viable cells according to the PrestoBlue^TM Assay. On day 1, MDA-MB-231 (1.5 × 10^4 cells per well or 7.5 × 10^3 cells per well) were seeded into black 96 well plates (Greiner; #655090) in a total volume of 100 µL. On day 2, the compounds or DMSO (Roth; #A994.1) alone at maximal 0.1% were applied (final concentrations after serial dilution shown in Table 3). An amount of 20 µM staurosporine (Sigma-Aldrich; #S5921) served as a positive control. On day 3, the PrestoBlue^TM reagent (Invitrogen^TM, Darmstadt, Germany; #A13262) was applied according to the manufacturer`s instructions. Finally, cell viability-dependent fluorescence was recorded in relative fluorescence units (RFU) with excitation/emission (Exλ/Emλ) at 535/590 nm or 560/590 nm, using the microplate reader Spark® (Tecan).

| Compound | IC50 [1] [nM] | IC50 [2] [nM] | cell cycle phase population [3] | IC50 ([4]; read-out: Reduction of Cell Viability 72 h IC50, 3D co-culture spheroids, 72 h treatment, mean ± SD (n = 3)) [nM] | IC50 [5] [nM] | IC50 ([4]; Mus musculus, MDA-MB-231, 72 h, read-out: Reduction of Cell Viability 72 h IC50, 3D co-culture spheroids, 72 h treatment, mean ± SD (n = 3)) [nM] |
| --- | --- | --- | --- | --- | --- | --- |
| COc1ccc2c3c(c4cc(OC)c(OC)cc4c2c1)CN1CCCC1C3O (centres unmarked) [Compound (1), O-methyltylophorinidine] | 17.1 ± 2 | 2.7 ± 0.9 | Cell populations increased in the S-phase as well as in the G2/M phase | 21.7 ± 2.5 | 13.6 ± 0.4 |  |
| COc1ccc2c3c(c4cc(OC)c(OC)cc4c2c1)CN1CCCC1C3O (centres unmarked) [Compound (1s), O-methyltylophorinidine] | 3.3 ± 0.2 |  |  |  | 4.2 ± 1 | 11.2 ± 2.1 |
